What all share (format): functional
The subject of assay [1] is Nucleic Acid. Nature of the assay: Percentage of cleavage in single stranded peptide nucleic acid was measured after treating with compound for 10 min; selectivity factor=0.6; PNA:DNA=5a:6.
In assay [2] the test system is Nucleic Acid. Kind of assay: Percentage of cleavage in single stranded peptide nucleic acid (PNA) DNA duplex was measured after treating with compound for 10 min; selectivity factor=0.6; PNA:DNA=5a:6.
The subject of assay [3] is Nucleic Acid. Nature of the assay: Percentage of cleavage in single stranded peptide nucleic acid was measured after treating with compound for 0.5 min; selectivity factor=0.9; PNA:DNA=5a:6.
Assay [4] concerns Nucleic Acid. Kind of assay: Percentage of cleavage in single stranded peptide nucleic acid (PNA) DNA duplex was measured after treating with compound for 0.5 min; selectivity factor=0.9; PNA:DNA=5a:6.
Assay [5] relates to Nucleic Acid. Nature of the assay: Percentage of cleavage in single stranded peptide nucleic acid (PNA) DNA duplex was measured after treating with compound for 300 min; selectivity factor=2.8; PNA:DNA=5c:8a.
For assay [6], the system named is Nucleic Acid. Nature of the assay: Percentage of cleavage in single stranded peptide nucleic acid (PNA) DNA duplex was measured after treating with compound for 300 min; selectivity factor=4.6; PNA:DNA=5a:6 (with NaCl 0.5 M).
The subject of assay [7] is Nucleic Acid. Kind of assay: Percentage of cleavage in single stranded peptide nucleic acid was measured after treating with compound for 300 min; selectivity factor=23.8; PNA:DNA=5a:6.
In assay [8] the test system is Nucleic Acid. Kind of assay: Percentage of cleavage in single stranded peptide nucleic acid (PNA)-DNA duplex was measured after treating with compound for 300 min; selectivity factor=10.1; PNA:DNA=5b:7.
Assay [9] concerns Nucleic Acid. Kind of assay: Percentage of cleavage in single stranded peptide nucleic acid was measured after treating with compound for 300 min; selectivity factor=10.1; PNA:DNA=5b:7.
In assay [10] the test system is Nucleic Acid. Kind of assay: Percentage of cleavage in single stranded peptide nucleic acid was measured after treating with compound for 300 min; selectivity factor=4.6; PNA:DNA=5a:6 (with NaCl 0.5 M).
In assay [11] the test system is Nucleic Acid. Kind of assay: Percentage of cleavage in single stranded peptide nucleic acid (PNA) DNA duplex was measured after treating with compound for 300 min; selectivity factor=23.8; PNA:DNA=5a:6.
Assay [12] relates to Nucleic Acid. Nature of the assay: Percentage of cleavage in single stranded peptide nucleic acid was measured after treating with compound for 300 min; selectivity factor=2.8; PNA:DNA=5c:8a.
Assay [13] has as its system Nucleic Acid. Kind of assay: Percentage of cleavage in single stranded peptide nucleic acid (PNA) DNA duplex was measured after treating with compound for 30 min; selectivity factor=1.6; PNA:DNA=5a:6.
Assay [14] has as its system Nucleic Acid. Kind of assay: Percentage of cleavage in single stranded peptide nucleic acid was measured after treating with compound for 30 min; selectivity factor=1.6; PNA:DNA=5a:6.
Assay [15] relates to Nucleic Acid. Kind of assay: Percentage of cleavage in single stranded peptide nucleic acid was measured after treating with compound for 2 min; selectivity factor>1; PNA:DNA=5a:6.
Assay [16] deals with Nucleic Acid. Kind of assay: Percentage of cleavage in single stranded peptide nucleic acid (PNA) DNA duplex was measured after treating with compound for 20 min; selectivity factor=57.1; PNA:DNA=5c:8.
Assay [17] relates to Nucleic Acid. Kind of assay: Percentage of cleavage in single stranded peptide nucleic acid (PNA) DNA duplex was measured after treating with compound for 20 min; selectivity factor=2.9; PNA:DNA=5b:7b.
Assay [18] has as its system Nucleic Acid. Kind of assay: Percentage of cleavage in single stranded peptide nucleic acid (PNA) DNA duplex was measured after treating with compound for 20 min; selectivity factor=17.3; PNA:DNA=5b:7.
The subject of assay [19] is Nucleic Acid. Nature of the assay: Percentage of cleavage in single stranded peptide nucleic acid was measured after treating with compound for 20 min; selectivity factor=22.2; PNA:DNA=5c:8b.
Assay [20] has as its system Nucleic Acid. Kind of assay: Percentage of cleavage in single stranded peptide nucleic acid was measured after treating with compound for 2 min; selectivity factor>/=1; PNA:DNA=5a:6b.
The test system of assay [21] is Nucleic Acid. Nature of the assay: Percentage of cleavage in single stranded peptide nucleic acid was measured after treating with compound for 20 min; selectivity factor=7.4; PNA:DNA=5b:7a.
Assay [22] relates to Nucleic Acid. Kind of assay: Percentage of cleavage in single stranded peptide nucleic acid (PNA) DNA duplex was measured after treating with compound for 20 min; selectivity factor=7.4; PNA:DNA=5b:7a.
Assay [23] has as its system Nucleic Acid. Nature of the assay: Percentage of cleavage in single stranded peptide nucleic acid was measured after treating with compound for 20 min; selectivity factor=57.1; PNA:DNA=5c:8.
Assay [24] relates to Nucleic Acid. Kind of assay: Percentage of cleavage in single stranded peptide nucleic acid was measured after treating with compound for 20 min; selectivity factor=2.9; PNA:DNA=5b:7b.
Assay [25] has as its system Nucleic Acid. Nature of the assay: Percentage of cleavage in single stranded peptide nucleic acid (PNA) DNA duplex was measured after treating with compound for 20 min; selectivity factor=22.2; PNA:DNA=5c:8b.
The subject of assay [26] is Nucleic Acid. Nature of the assay: Percentage of cleavage in single stranded peptide nucleic acid (PNA) DNA duplex was measured after treating with compound for 2 min; selectivity factor>/=1; PNA:DNA=5a:6b.
Assay [27] has as its system Nucleic Acid. Nature of the assay: Percentage of cleavage in single stranded peptide nucleic acid was measured after treating with compound for 20 min; selectivity factor=25.7; PNA:DNA=5c:8a.
Assay [28] relates to Nucleic Acid. Nature of the assay: Percentage of cleavage in single stranded peptide nucleic acid (PNA) DNA duplex was measured after treating with compound for 2 min; selectivity factor>1; PNA:DNA= 5a:6.
Assay [29] deals with Nucleic Acid. Kind of assay: Percentage of cleavage in single stranded peptide nucleic acid was measured after treating with compound for 20 min; selectivity factor=17.3; PNA:DNA=5b:7.
In assay [30] the test system is Nucleic Acid. Kind of assay: Percentage of cleavage in single stranded peptide nucleic acid (PNA) DNA duplex was measured after treating with compound for 20 min; selectivity factor=25.7; PNA:DNA=5c:8a.
Assay [31] deals with Nucleic Acid. Nature of the assay: Percentage of cleavage in single stranded peptide nucleic acid was measured after treating with compound for 30 min; selectivity factor=0.7; PNA:DNA=5a:6.
Assay [32] relates to Nucleic Acid. Nature of the assay: Percentage of cleavage in single stranded peptide nucleic acid (PNA) DNA duplex was measured after treating with compound for 30 min; selectivity factor=0.7; PNA:DNA=5a:6.
In assay [33] the test system is Nucleic Acid. Nature of the assay: Percentage of cleavage in single stranded peptide nucleic acid was measured after treating with compound for 2 min; selectivity factor=1.5; PNA:DNA=5a:6.
Assay [34] concerns Nucleic Acid. Nature of the assay: Percentage of cleavage in single stranded peptide nucleic acid (PNA) DNA duplex was measured after treating with compound for 2 min; selectivity factor=1.5; PNA:DNA=5a:6.
The test system of assay [35] is Nucleic Acid. Kind of assay: Percentage of cleavage in single stranded peptide nucleic acid (PNA) DNA duplex was measured after treating with compound for 30 min; selectivity factor=10.2; PNA:DNA=5a:6.
Assay [36] has as its system Nucleic Acid. Kind of assay: Percentage of cleavage in single stranded peptide nucleic acid was measured after treating with compound for 30 min; selectivity factor=10.2; PNA:DNA=5a:6.
The subject of assay [37] is Nucleic Acid. Nature of the assay: Percentage of cleavage in single stranded peptide nucleic acid was measured after treating with compound for 30 min; selectivity factor=1; PNA:DNA=5a:6.
In assay [38] the test system is Nucleic Acid. Nature of the assay: Percentage of cleavage in single stranded peptide nucleic acid (PNA) DNA duplex was measured after treating with compound for 30 min; selectivity factor=1; PNA:DNA=5a:6.

As for `NC(CS)C(=O)O` (stereo not drawn), the Cleavage in the assay on Nucleic Acid [1] was found to be 16.2%; in the assay with Nucleic Acid [2], 28.4%.

On to `CN(C)c1ccc(P(c2ccccc2)c2ccccc2)cc1`, for which the Cleavage was 19.5% in the assay with Nucleic Acid [3] and 23% with Nucleic Acid [4].

Turning to `O=S(=O)(O)c1ccc(P(c2ccc(S(=O)(=O)O)cc2)c2ccc(S(=O)(=O)O)cc2)cc1`, the Cleavage is 34.6% in the assay with Nucleic Acid [5]; 21% with Nucleic Acid [6]; 88.1% with Nucleic Acid [7]; 9% in the assay on Nucleic Acid [8]; 91.1% in the assay with Nucleic Acid [9]; 97.6% in the assay with Nucleic Acid [10]. Further, the Cleavage amounted to 3.7% with Nucleic Acid [11] and 95.2% with Nucleic Acid [12].

Turning to `O=C(O)c1ccccc1P(c1ccccc1)c1ccccc1`, the Cleavage in the assay on Nucleic Acid [13] is 43.7%; in the assay with Nucleic Acid [14], 69.1%.

With `O=C(O)CCP(CCC(=O)O)CCC(=O)O`, the Cleavage was determined as 100% in the assay on Nucleic Acid [15]; 1.7% in the assay on Nucleic Acid [16]; 10.8% in the assay with Nucleic Acid [17]; 1.8% with Nucleic Acid [18]; 97.6% with Nucleic Acid [19]; 100% with Nucleic Acid [20]. In addition, the Cleavage in the assay on Nucleic Acid [21] turned out to be 31.2%; in the assay on Nucleic Acid [22], 4.2%; in the assay on Nucleic Acid [23], 97.6%; in the assay with Nucleic Acid [24] it was 31.2%; in the assay on Nucleic Acid [25], 4.4%; in the assay on Nucleic Acid [26], 98.6%. Further, the Cleavage in the assay on Nucleic Acid [27] came to 97.6%; in the assay on Nucleic Acid [28], 70.7%; in the assay with Nucleic Acid [29], 31.2%; in the assay with Nucleic Acid [30], 3.8%.

As for `O=C(O)CCS`, the values for the Cleavage in the assay on Nucleic Acid [31] and in the assay on Nucleic Acid [32] were 52.3% and 78.9%, respectively.

On to `NCCS`, for which the Cleavage in the assay with Nucleic Acid [33] was 86.8%; in the assay with Nucleic Acid [34] it was 56.1%.

For the compound `OCC(S)C(S)CO` (stereo not drawn), the Cleavage came out at 7.6% in the assay on Nucleic Acid [35] and 77.2% with Nucleic Acid [36].

As for `O=C(O)c1ccc(P(c2ccccc2)c2ccccc2)cc1`, the Cleavage in the assay with Nucleic Acid [37] amounted to 92.9%; in the assay with Nucleic Acid [38] it was 88.6%.
